Experimental data taken from article PMC12390942, “Gut microbiota–derived metabolite trimethylamine N-oxide alters the host epigenome through inhibition of S-adenosylhomocysteine hydrolase” (The Journal of Biological Chemistry, 2025).

Experiments:
[1] = target: T1, S-adenosylhomocysteine hydrolase (AHCY) (Homo sapiens, UniProt P23526); test: enzymatic turnover of SAH by purified recombinant AHCY, LC-MS quantification of adenosine; type: biochemical
T1 construct: human full-length AHCY, N-terminal 6xHis tag
T1 sequence (P23526 whole entry): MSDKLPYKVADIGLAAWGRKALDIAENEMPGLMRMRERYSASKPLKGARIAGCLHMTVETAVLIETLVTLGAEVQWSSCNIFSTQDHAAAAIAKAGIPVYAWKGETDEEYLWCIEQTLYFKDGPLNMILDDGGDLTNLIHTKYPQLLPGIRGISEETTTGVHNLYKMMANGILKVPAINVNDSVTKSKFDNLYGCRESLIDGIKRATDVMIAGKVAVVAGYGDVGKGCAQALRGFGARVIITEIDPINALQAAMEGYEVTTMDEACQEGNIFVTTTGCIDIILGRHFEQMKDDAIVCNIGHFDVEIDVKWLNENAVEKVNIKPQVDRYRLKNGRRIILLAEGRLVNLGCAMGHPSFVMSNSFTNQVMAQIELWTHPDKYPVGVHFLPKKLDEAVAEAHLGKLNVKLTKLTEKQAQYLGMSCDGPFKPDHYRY

[2] = target: T1, S-adenosylhomocysteine hydrolase (AHCY); test: steady-state inhibition kinetics on purified recombinant AHCY, ADA-coupled, LC-MS quantification of inosine; type: biochemical

SMILES	enzymatic turnover of SAH by purified recombinant AHCY, LC-MS quantification of [1]	Ki [2] [µM]
Nc1ncnc2c1ncn2[C@@H]1O[C@H](CSCC[C@H](N)C(=O)O)[C@@H](O)[C@H]1O [SAH]	purified AHCY revealed that SAH is converted to adenosine in an enzyme dependent fashion	
C[N+](C)(C)[O-] [TMAO]		36.5
